Data from publication PMC9090415, “Discovery of small molecule inhibitors of Plasmodium falciparum apicoplast DNA polymerase” (Journal of Enzyme Inhibition and Medicinal Chemistry, 2022).

Molecular target: P. falciparum apicoplast DNA polymerase (Pf-apPOL) (Plasmodium falciparum, UniProt Q8ILY1)
Assay: Fluorescence-based high-throughput DNA polymerase assay (molecular beacon), primary screen and dose-response;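 as to % inhibition ApPOL 90': test concentration in µM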;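 as to % inhibition apPOL 180': test concentration in µM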
Assay type: biochemical
Conditions: for DNA Pol: 90 min, 10 µM
Summary of the method: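 Single-point screening used 10 µM compound with 20 nM polymerase, 20 nM hairpin substrate and 6 µM dNTPs for 90 min at 25 °C. Confirmatory titrations (2.5–80 µM) followed fluorescence at three times, and IC50 was derived from a fit including a cooperativity term n.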

[1] = 'DNA Pol' of the 186 hits list (screen value)
[2] = primary screen value, "DNA Pol"

Sequence of P. falciparum apicoplast DNA polymerase (Pf-apPOL) (Q8ILY1 entry or part of it): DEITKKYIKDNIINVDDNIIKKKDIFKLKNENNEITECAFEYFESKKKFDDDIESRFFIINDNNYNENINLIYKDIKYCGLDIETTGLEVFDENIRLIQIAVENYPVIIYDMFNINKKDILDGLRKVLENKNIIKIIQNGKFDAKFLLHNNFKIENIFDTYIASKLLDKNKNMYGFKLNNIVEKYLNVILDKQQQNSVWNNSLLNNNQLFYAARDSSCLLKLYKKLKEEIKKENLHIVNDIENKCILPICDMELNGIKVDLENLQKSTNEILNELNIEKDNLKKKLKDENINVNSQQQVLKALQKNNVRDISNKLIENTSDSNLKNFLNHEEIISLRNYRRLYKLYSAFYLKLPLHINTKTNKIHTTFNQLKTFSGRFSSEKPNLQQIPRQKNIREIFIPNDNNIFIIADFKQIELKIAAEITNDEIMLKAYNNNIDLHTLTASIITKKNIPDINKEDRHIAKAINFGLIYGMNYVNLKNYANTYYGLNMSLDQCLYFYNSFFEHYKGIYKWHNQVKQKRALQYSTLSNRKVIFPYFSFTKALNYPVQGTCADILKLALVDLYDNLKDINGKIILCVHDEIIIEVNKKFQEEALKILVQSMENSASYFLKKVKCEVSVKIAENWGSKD

In the case of `Cc1ccc(NC(=O)Cn2ccc3c(=O)[nH]ccc32)c(C)c1` [KU0205125], the “DNA Pol” value [1] is reported as 21, the “% inhibition Apo pol 10'” value (DRC-1, conc 2.5) is reported as 10.1191% and the “% inhibition Apo pol 10'” value (DRC-1, conc 5) is reported as 18.1282%. The “% inhibition Apo pol 10'” value (DRC-1, conc 10) was 33.277%, the “% inhibition Apo pol 10'” value (DRC-1, conc 20) was 57.4285% and the “% inhibition Apo pol 10'” value (DRC-1, conc 40) was 86.5673%. The “% inhibition Apo pol 10'” value (DRC-1, conc 80) was 93.6236%, the “% inhibition Apol 90'” value (DRC-1, conc 2.5) was 1.128% and the “% inhibition Apol 90'” value (DRC-1, conc 5) was 2.856%. The “% inhibition Apol 90'” value (DRC-1, conc 10) was 16.2688%, the “% inhibition Apol 90'” value (DRC-1, conc 20) was 36.6738% and the “% inhibition Apol 90'” value (DRC-1, conc 40) was 74.6586%. For the same molecule, the “% inhibition Apol 90'” value (DRC-1, conc 80) was 93.7132%, the “% inhibition apPOL 180'” value (DRC-1, conc 2.5) was -4.92% and the “% inhibition apPOL 180'” value (DRC-1, conc 5) was -5.3418%. The “% inhibition apPOL 180'” value (DRC-1, conc 10) was 4.52%, the “% inhibition apPOL 180'” value (DRC-1, conc 20) was 18.6019% and the “% inhibition apPOL 180'” value (DRC-1, conc 40) was 59.9504%. For the same molecule, the “% inhibition apPOL 180'” value (DRC-1, conc 80) was 92.9849%, the “% inhibition Apo pol 5'” value (DRC-2, conc 2.5) was -2.19% and the “% inhibition Apo pol 5'” value (DRC-2, conc 5) was 1.9%. For the same molecule, the “% inhibition Apo pol 5'” value (DRC-2, conc 10) was 23%, the “% inhibition Apo pol 5'” value (DRC-2, conc 20) was 44% and the “% inhibition Apo pol 5'” value (DRC-2, conc 40) was 52%. The “% inhibition Apo pol 5'” value (DRC-2, conc 80) was 50%, the “% inhibition Apo pol 5'” value (DRC-2, concentration 20) was 44% and the “% inhibition Apol 40'” value (DRC-2, conc 2.5) was -3.78%. For the same molecule, the “% inhibition Apol 40'” value (DRC-2, conc 5) was -0.571%, the “% inhibition Apol 40'” value (DRC-2, conc 10) was 20% and the “% inhibition Apol 40'” value (DRC-2, conc 20) was 48%. The “% inhibition Apol 40'” value (DRC-2, conc 40) was 70%, the “% inhibition Apol 40'” value (DRC-2, conc 80) was 73% and the “% inhibition ApPOL 90'” value (DRC-2, conc 2.5) was -5%. The “% inhibition ApPOL 90'” value (DRC-2, conc 5) was -4%, the “% inhibition ApPOL 90'” value (DRC-2, conc 10) was 15% and the “% inhibition ApPOL 90'” value (DRC-2, conc 20) was 44%. The “% inhibition ApPOL 90'” value (DRC-2, conc 40) was 71%, the “% inhibition ApPOL 90'” value (DRC-2, conc 80) was 78% and the “% inhibition ApPOL 90'” value (DRC-2, concentration 20) was 44%. For the same molecule, the “% inhibition apPOL 180'” value (DRC-2, conc 2.5) was -10%, the “% inhibition apPOL 180'” value (DRC-2, conc 5) was -11% and the “% inhibition apPOL 180'” value (DRC-2, conc 10) was 3%. For the same molecule, the “% inhibition apPOL 180'” value (DRC-2, conc 20) was 30%, the “% inhibition apPOL 180'” value (DRC-2, conc 40) was 69% and the “% inhibition apPOL 180'” value (DRC-2, conc 80) was 82%. For the same molecule, the “DNA Pol” value [2] was 21.

In the case of `O=C1Nc2ccc(I)cc2C1=Cc1cc(Br)c(O)c(Br)c1` [Molecule 27, Ic1ccc2c(c1)C(=Cc1cc(Br)c(c(c1)Br)O)C(=O)N2], the “DNA Pol” value [1] is reported as 52, the “% inhibition Apo pol 10'” value (DRC-1, conc 2.5) is reported as -2.766% and the “% inhibition Apo pol 10'” value (DRC-1, conc 5) is reported as 14.7903%. For the same molecule, the “% inhibition Apo pol 10'” value (DRC-1, conc 10) was 55.8319%, the “% inhibition Apo pol 10'” value (DRC-1, conc 20) was 68.6495% and the “% inhibition Apo pol 10'” value (DRC-1, conc 40) was 74.9605%. The “% inhibition Apo pol 10'” value (DRC-1, conc 80) was 94.5024%, the “% inhibition Apol 90'” value (DRC-1, conc 2.5) was -5.207% and the “% inhibition Apol 90'” value (DRC-1, conc 5) was 5.358%. For the same molecule, the “% inhibition Apol 90'” value (DRC-1, conc 10) was 51.0216%, the “% inhibition Apol 90'” value (DRC-1, conc 20) was 63.6894% and the “% inhibition Apol 90'” value (DRC-1, conc 40) was 72.1753%. For the same molecule, the “% inhibition Apol 90'” value (DRC-1, conc 80) was 93.708%, the “% inhibition apPOL 180'” value (DRC-1, conc 2.5) was -6.922% and the “% inhibition apPOL 180'” value (DRC-1, conc 5) was 0.7186%. The “% inhibition apPOL 180'” value (DRC-1, conc 10) was 40.1564%, the “% inhibition apPOL 180'” value (DRC-1, conc 20) was 53.0871% and the “% inhibition apPOL 180'” value (DRC-1, conc 40) was 65.7742%. For the same molecule, the “% inhibition apPOL 180'” value (DRC-1, conc 80) was 93.2975%, the “% inhibition Apo pol 5'” value (DRC-2, conc 2.5) was -1.67% and the “% inhibition Apo pol 5'” value (DRC-2, conc 5) was 2.85%. The “% inhibition Apo pol 5'” value (DRC-2, conc 10) was 38%, the “% inhibition Apo pol 5'” value (DRC-2, conc 20) was 54% and the “% inhibition Apo pol 5'” value (DRC-2, conc 40) was 54%. The “% inhibition Apo pol 5'” value (DRC-2, conc 80) was 54%, the “% inhibition Apo pol 5'” value (DRC-2, concentration 20) was 54% and the “% inhibition Apo pol 5'” value (DRC-2, concentration 40) was 54%. For the same molecule, the “% inhibition Apo pol 5'” value (DRC-2, concentration 80) was 54%, the “% inhibition Apol 40'” value (DRC-2, conc 2.5) was 0.385% and the “% inhibition Apol 40'” value (DRC-2, conc 5) was 11%. The “% inhibition Apol 40'” value (DRC-2, conc 10) was 48%, the “% inhibition Apol 40'” value (DRC-2, conc 20) was 68% and the “% inhibition Apol 40'” value (DRC-2, conc 40) was 71%. The “% inhibition Apol 40'” value (DRC-2, conc 80) was 72%, the “% inhibition Apol 40'” value (DRC-2, concentration 5) was 11% and the “% inhibition Apol 40'” value (DRC-2, concentration 10) was 48%. For the same molecule, the “% inhibition Apol 40'” value (DRC-2, concentration 80) was 72%, the “% inhibition ApPOL 90'” value (DRC-2, conc 2.5) was 2.27% and the “% inhibition ApPOL 90'” value (DRC-2, conc 5) was 11%. For the same molecule, the “% inhibition ApPOL 90'” value (DRC-2, conc 10) was 48%, the “% inhibition ApPOL 90'” value (DRC-2, conc 20) was 70% and the “% inhibition ApPOL 90'” value (DRC-2, conc 40) was 74%. The “% inhibition ApPOL 90'” value (DRC-2, conc 80) was 76%, the “% inhibition ApPOL 90'” value (DRC-2, concentration 5) was 11% and the “% inhibition ApPOL 90'” value (DRC-2, concentration 10) was 48%. For the same molecule, the “% inhibition ApPOL 90'” value (DRC-2, concentration 80) was 76%, the “% inhibition apPOL 180'” value (DRC-2, conc 2.5) was 0.56% and the “% inhibition apPOL 180'” value (DRC-2, conc 5) was 6%. The “% inhibition apPOL 180'” value (DRC-2, conc 10) was 40%, the “% inhibition apPOL 180'” value (DRC-2, conc 20) was 67% and the “% inhibition apPOL 180'” value (DRC-2, conc 40) was 72%. For the same molecule, the “% inhibition apPOL 180'” value (DRC-2, conc 80) was 76%, the “% inhibition apPOL 180'” value (DRC-2, concentration 40) was 72% and the “% inhibition apPOL 180'” value (DRC-2, concentration 80) was 76%. The “DNA Pol” value [2] was 52.

In the case of `O=C(CSc1nnc(-c2ccncc2)[nH]1)c1ccc(O)c(O)c1` [Molecule 89, O=C(c1ccc(c(c1)O)O)CSc1nnc([nH]1)c1ccncc1], the “% inhibition Apo pol 10'” value (DRC-1, concentration 2.5) is reported as 60.0938%, the “% inhibition Apo pol 10'” value (DRC-1, concentration 5) is reported as 82.0224% and the “% inhibition Apo pol 10'” value (DRC-1, concentration 10) is reported as 88.031%. For the same molecule, the “% inhibition Apo pol 10'” value (DRC-1, concentration 20) was 91.1846%, the “% inhibition Apo pol 10'” value (DRC-1, concentration 40) was 93.0486% and the “% inhibition Apo pol 10'” value (DRC-1, concentration 80) was 94.9385%. The “% inhibition Apol 90'” value (DRC-1, concentration 2.5) was 43.8309%, the “% inhibition Apol 90'” value (DRC-1, concentration 5) was 70.0142% and the “% inhibition Apol 90'” value (DRC-1, concentration 10) was 80.3522%. The “% inhibition Apol 90'” value (DRC-1, concentration 20) was 84.6554%, the “% inhibition Apol 90'” value (DRC-1, concentration 40) was 86.229% and the “% inhibition Apol 90'” value (DRC-1, concentration 80) was 90.5693%. For the same molecule, the “% inhibition apPOL 180'” value (DRC-1, concentration 2.5) was 29.303%, the “% inhibition apPOL 180'” value (DRC-1, concentration 5) was 56.5831% and the “% inhibition apPOL 180'” value (DRC-1, concentration 10) was 70.7438%. The “% inhibition apPOL 180'” value (DRC-1, concentration 20) was 76.8269%, the “% inhibition apPOL 180'” value (DRC-1, concentration 40) was 78.119% and the “% inhibition apPOL 180'” value (DRC-1, concentration 80) was 84.9374%. For the same molecule, the “% inhibition Apo pol 5'” value (DRC-2, concentration 2.5) was 47%, the “% inhibition Apo pol 5'” value (DRC-2, concentration 5) was 49% and the “% inhibition Apo pol 5'” value (DRC-2, concentration 10) was 52%. The “% inhibition Apo pol 5'” value (DRC-2, concentration 20) was 53%, the “% inhibition Apo pol 5'” value (DRC-2, concentration 40) was 57% and the “% inhibition Apo pol 5'” value (DRC-2, concentration 80) was 58%. The “% inhibition Apol 40'” value (DRC-2, concentration 2.5) was 53%, the “% inhibition Apol 40'” value (DRC-2, concentration 5) was 62% and the “% inhibition Apol 40'” value (DRC-2, concentration 10) was 68%. For the same molecule, the “% inhibition Apol 40'” value (DRC-2, concentration 20) was 71%, the “% inhibition Apol 40'” value (DRC-2, concentration 40) was 76% and the “% inhibition Apol 40'” value (DRC-2, concentration 80) was 78%. The “% inhibition ApPOL 90'” value (DRC-2, concentration 2.5) was 50%, the “% inhibition ApPOL 90'” value (DRC-2, concentration 5) was 62% and the “% inhibition ApPOL 90'” value (DRC-2, concentration 10) was 69%. For the same molecule, the “% inhibition ApPOL 90'” value (DRC-2, concentration 20) was 73%, the “% inhibition ApPOL 90'” value (DRC-2, concentration 40) was 78% and the “% inhibition ApPOL 90'” value (DRC-2, concentration 80) was 80%. For the same molecule, the “% inhibition apPOL 180'” value (DRC-2, concentration 2.5) was 34%, the “% inhibition apPOL 180'” value (DRC-2, concentration 5) was 53% and the “% inhibition apPOL 180'” value (DRC-2, concentration 10) was 63%. The “% inhibition apPOL 180'” value (DRC-2, concentration 20) was 68%, the “% inhibition apPOL 180'” value (DRC-2, concentration 40) was 76% and the “% inhibition apPOL 180'” value (DRC-2, concentration 80) was 80%. The “% inhibition Apol 40'” value (conc. 2.5, DRC-2) was 53%, the “% inhibition Apol 40'” value (conc. 5, DRC-2) was 62% and the “% inhibition ApPOL 90'” value (conc. 5, DRC-2) was 62%. The “% inhibition apPOL 180'” value (conc. 5, DRC-2) was 53%, the “% inhibition Apol 40'” value (conc. 10, DRC-2) was 68% and the “% inhibition Apo pol 5'” value (conc. 20, DRC-2) was 53%. The “% inhibition apPOL 180'” value (conc. 20, DRC-2) was 68%, the “% inhibition Apol 40'” value (conc. 40, DRC-2) was 76% and the “% inhibition ApPOL 90'” value (conc. 40, DRC-2) was 78%. For the same molecule, the “% inhibition apPOL 180'” value (conc. 40, DRC-2) was 76%, the “% inhibition Apol 40'” value (conc. 80, DRC-2) was 78% and the “% inhibition ApPOL 90'” value (conc. 80, DRC-2) was 80%. The “% inhibition apPOL 180'” value (conc. 80, DRC-2) was 80%, the “DNA Pol” value (primary screen value by plate and well) was 90 and the “DNA Pol” value (primary screen value of the 186 hits, unit not given) was 90.
